Experiments:
[1] = target: T1, Ikaros (also known as IKZF1) (Homo sapiens, UniProt Q13422+Q96SW2); assay: Ikaros degradation in PBMC of patients (mass spectrometry); type: in vivo; conditions: Patients 2, 4, 5; oral 50 μg/day or 25 μg/day; 4 hours, day 7, 14, 21 of cycle 1
T1 construct: total peripheral blood mononuclear cell (PBMC) population extracted from whole blood samples of Patient 2, Patient 4, and Patient 5; endogenous in cells; host or cells: peripheral blood mononuclear cells (PBMC) from whole blood of treated patients
T1 sequence (Q13422 whole entry): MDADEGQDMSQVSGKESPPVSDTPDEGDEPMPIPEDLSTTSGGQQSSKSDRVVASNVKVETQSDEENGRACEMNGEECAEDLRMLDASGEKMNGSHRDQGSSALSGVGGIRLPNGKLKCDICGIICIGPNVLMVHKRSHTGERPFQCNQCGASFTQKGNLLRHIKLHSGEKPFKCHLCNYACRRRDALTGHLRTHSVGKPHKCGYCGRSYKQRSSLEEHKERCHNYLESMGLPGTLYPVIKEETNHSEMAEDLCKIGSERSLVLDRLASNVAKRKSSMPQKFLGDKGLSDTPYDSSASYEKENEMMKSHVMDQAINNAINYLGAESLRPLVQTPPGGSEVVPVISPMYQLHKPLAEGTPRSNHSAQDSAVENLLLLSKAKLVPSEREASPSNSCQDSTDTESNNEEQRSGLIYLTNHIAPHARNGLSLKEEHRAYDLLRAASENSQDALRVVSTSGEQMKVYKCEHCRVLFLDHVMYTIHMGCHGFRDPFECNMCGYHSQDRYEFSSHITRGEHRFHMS
T1 sequence (Q96SW2 whole entry): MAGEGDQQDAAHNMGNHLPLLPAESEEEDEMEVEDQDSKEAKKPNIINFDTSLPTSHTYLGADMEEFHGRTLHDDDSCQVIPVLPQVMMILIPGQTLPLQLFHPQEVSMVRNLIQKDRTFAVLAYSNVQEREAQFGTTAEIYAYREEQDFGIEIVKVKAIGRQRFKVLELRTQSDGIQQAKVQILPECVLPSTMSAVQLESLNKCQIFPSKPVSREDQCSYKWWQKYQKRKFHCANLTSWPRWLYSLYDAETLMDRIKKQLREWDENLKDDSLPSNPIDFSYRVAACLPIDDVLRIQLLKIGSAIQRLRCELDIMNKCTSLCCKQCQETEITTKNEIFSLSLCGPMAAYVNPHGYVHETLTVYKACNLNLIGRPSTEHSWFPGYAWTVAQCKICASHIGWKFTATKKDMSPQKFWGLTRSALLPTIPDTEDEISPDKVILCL
T1 sequence (Q16531 whole entry partner): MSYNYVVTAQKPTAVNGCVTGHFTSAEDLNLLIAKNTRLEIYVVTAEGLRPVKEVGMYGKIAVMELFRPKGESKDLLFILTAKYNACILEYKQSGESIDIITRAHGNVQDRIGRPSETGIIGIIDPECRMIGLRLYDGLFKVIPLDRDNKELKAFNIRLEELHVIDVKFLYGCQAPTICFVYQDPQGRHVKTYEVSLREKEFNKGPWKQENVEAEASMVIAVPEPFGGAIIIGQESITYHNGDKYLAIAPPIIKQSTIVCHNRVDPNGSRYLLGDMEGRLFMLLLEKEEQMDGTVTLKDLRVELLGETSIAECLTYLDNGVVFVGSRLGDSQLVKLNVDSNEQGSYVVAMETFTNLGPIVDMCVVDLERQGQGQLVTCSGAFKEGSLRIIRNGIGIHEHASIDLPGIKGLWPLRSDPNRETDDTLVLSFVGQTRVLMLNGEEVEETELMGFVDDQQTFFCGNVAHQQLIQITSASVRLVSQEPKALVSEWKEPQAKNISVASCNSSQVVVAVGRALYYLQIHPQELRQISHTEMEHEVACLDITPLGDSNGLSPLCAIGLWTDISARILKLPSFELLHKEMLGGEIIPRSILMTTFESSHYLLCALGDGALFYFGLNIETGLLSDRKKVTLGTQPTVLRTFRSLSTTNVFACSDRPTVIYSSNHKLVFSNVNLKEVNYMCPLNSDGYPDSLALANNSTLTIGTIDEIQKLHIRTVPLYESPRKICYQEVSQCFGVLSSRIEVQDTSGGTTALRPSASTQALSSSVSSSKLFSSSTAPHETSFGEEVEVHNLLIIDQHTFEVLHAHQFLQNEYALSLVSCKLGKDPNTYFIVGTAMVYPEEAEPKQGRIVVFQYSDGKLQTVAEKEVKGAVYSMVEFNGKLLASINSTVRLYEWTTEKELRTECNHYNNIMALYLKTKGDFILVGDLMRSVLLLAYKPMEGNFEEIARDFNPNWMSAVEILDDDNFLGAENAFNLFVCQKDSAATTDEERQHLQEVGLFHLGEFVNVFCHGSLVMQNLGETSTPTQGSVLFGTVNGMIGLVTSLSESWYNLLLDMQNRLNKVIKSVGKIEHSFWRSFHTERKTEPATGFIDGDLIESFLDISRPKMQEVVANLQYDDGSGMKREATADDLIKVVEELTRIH
Procedure: (§1) Ikaros (also known as IKZF1) and Aiolos (also known as IKZF3) degradation was evaluated using mass spectrometry analysis of total peripheral blood mononuclear cell (PBMC) population extracted from whole blood samples of Patient 2, Patient 4, and Patient 5 taken on the first day of the first cycle (cycle 1, day 1 or C1D1) prior to treatment, 4 hours post Compound 1 treatment, and on day 7, day 14, and day 21 of the treatment cycle.

[2] = target: T2, Aiolos (also known as IKZF3) (Homo sapiens, UniProt Q9UKT9); assay: Aiolos degradation in PBMC of patients (mass spectrometry); type: in vivo; conditions: Patients 2, 4, 5; oral 50 μg/day or 25 μg/day; 4 hours, day 7, 14, 21 of cycle 1
T2 construct: total peripheral blood mononuclear cell (PBMC) population extracted from whole blood samples of Patient 2, Patient 4, and Patient 5; endogenous in cells; host or cells: peripheral blood mononuclear cells (PBMC) from whole blood of treated patients
T2 sequence (Q9UKT9 whole entry): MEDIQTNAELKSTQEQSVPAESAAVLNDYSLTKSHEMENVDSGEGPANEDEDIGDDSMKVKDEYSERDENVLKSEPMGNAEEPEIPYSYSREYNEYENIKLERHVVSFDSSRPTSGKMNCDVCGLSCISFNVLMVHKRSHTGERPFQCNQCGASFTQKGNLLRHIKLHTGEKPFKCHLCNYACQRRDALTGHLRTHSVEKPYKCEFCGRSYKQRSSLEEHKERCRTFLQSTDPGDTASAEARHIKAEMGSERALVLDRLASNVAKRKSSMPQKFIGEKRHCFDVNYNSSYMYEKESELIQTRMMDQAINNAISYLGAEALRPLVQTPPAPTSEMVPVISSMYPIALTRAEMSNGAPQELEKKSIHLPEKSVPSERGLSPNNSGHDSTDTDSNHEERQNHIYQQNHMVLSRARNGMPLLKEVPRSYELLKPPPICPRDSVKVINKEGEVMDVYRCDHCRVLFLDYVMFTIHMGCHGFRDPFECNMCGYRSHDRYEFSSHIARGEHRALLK
T2 sequence (Q96SW2 whole entry, further chain): as the sequence (Q96SW2 whole entry) above
T2 sequence (Q16531 whole entry partner): as the sequence (Q16531 whole entry partner) above
Procedure: as §1

[3] = system: involved and uninvolved free light chains; assay: Reduction in dFLC after single agent exposure to Compound 1; type: in vivo, human
Procedure: Using samples collecting in Example 24, the difference between involved free light chains and uninvolved free light changes, or dFLC, for Patients 1-3 were calculated using the following formula:
[Abnormal light chainbaseline−normal light chainbaseline]−[Abnormal light chainnadir−normal light chainnadir]/[Abnormal light chainbaseline−normal light chainbaseline]*100 dFLC equation: […]

[4] = system: OCI-LY10 human DLBCL intracranial xenografts; assay: OCI-LY10 human DLBCL intracranial xenograft study, survival
Procedure: Agents were tested in the OCI-LY10 human DLBCL intracranial model. […] Rituximab was administered from day 1 via i.v. once per week. Rituximab was dosed at 10 and 30 mg/kg. Individual mouse was euthanized once its body weight loss was over 20%.
The cells growing in an exponential growth phase were harvested and counted for tumor inoculation.
99 CB17 SCID mice were inoculated by intracranial injection with OCI-LY10 cells (1×10^6) for tumor development.
Tumor inoculation: Intraperitoneally injected avertin at dosage of 240 mg/kg to anaesthetize the CB17 SCID mice. Fixed the head of the anaesthetized mice to the brain solid positioner, sterilized the head skin with 70% alcohol. […] Punched a hole about 2 mm right of the anterior fontanel and 1 mm ahead the coronal on the skull with a 25 G needle. Cell suspensions were mixed and certain amount was sucked into the 5 μL injector slowly to avoid bubble formation. The cells were swapped around the needle with alcohol to avoid extracranial tumor genesis. The needle was stuck vertically into the formed hold and 5 μL of cell suspension containing 1×10^6 OCI-LY10 cells was slowly injected for over 1 minute. The injector was then held for another 1 minute and then pulled back to decrease the drainage of the cells suspension. The skin was closed with tweezers and then sewed. Meloxicam was then injected 30 min after the surgery at dosage of 5 mg/kg to relieve the pain. The animals were kept under monitoring until they were awake.
Animals were grouped for treatment on day 7 after tumor inoculation.
At the time of routine monitoring, the animals were daily checked for any effects of tumor growth and treatments on normal behavior such as mobility, food and water consumption (by looking only), body weight gain/loss (body weights were measured twice weekly), eye/hair matting and any other abnormal effect as stated in the protocol. Death and observed clinical signs were recorded on the basis of the numbers of animals within each subset.

[5] = Compound 1, 0.01 mg/kg, p.o., QD

## O=C1CC[C@H](N2C(=O)c3cccc4c(Cc5ccc(CN6CCOCC6)cc5)ccc2c34)C(=O)N1 [Compound 1, (S)-3-(6-(4-(morpholinomethyl)benzyl)-2-oxobenzo[cd]indol-1(2H)-yl)piperidine-2,6-dione]
[1]
  Ikaros (IKZF1) degradation in PBMC compared to baseline: deep degradation
[2]
  Aiolos (IKZF3) degradation in PBMC compared to baseline: deep degradation
[3]; Patient 1, first dose 50 μg oral, no extramedullary disease, ∇ (down)
  % Change at Nadir in dFLC: ∇ 48.2%
[3]; Patient 2, first dose 50 μg oral, Multiple Plasmacytomas, ∇ (down)
  % Change at Nadir in dFLC: ∇ 78.1%
[3]; Patient 3, first dose 50 μg oral, Lytic Bone Lesions, ∇ (down)
  % Change at Nadir in dFLC: ∇ 41.0%
[3]; Patient 4, first dose 50 μg oral, no extramedullary disease, printed with Δ (up)
  % Change at Nadir in dFLC: Δ 56.3%
[4]; Compound 1 0.01 mg/kg p.o. once per day, p=0.001
  extension of survival time: 35.7%
[4]; [5]
  Median Survival (Days), ± SEM: 19.00 ± 1.41 days
  Survival time extension (%): 35.7%
